{"source": "ChEMBL document CHEMBL5512623", "about": "“Discovery of the novel and potent histamine H1 receptor antagonists for treatment of allergic diseases” (Eur J Med Chem, 2024)", "key": {"[1]": {"assay": "Apparent permeability across basolateral to apical side in human Caco-2 cells at 5 uM measured at 60 mins", "assay_type": "ADME, cell-based"}, "[2]": {"assay": "Efflux ratio of apparent permeability across basolateral to apical over apical to basolateral side in human Caco-2 cells at 5 uM measured at 60 mins", "assay_type": "ADME, cell-based"}, "[3]": {"assay": "Apparent permeability across apical to basolateral side in human Caco-2 cells at 5 uM measured at 60 mins", "assay_type": "ADME, cell-based"}, "[4]": {"target": "Muscarinic acetylcholine receptor M3 (Homo sapiens, UniProt P20309)", "sequence (P20309 whole entry)": "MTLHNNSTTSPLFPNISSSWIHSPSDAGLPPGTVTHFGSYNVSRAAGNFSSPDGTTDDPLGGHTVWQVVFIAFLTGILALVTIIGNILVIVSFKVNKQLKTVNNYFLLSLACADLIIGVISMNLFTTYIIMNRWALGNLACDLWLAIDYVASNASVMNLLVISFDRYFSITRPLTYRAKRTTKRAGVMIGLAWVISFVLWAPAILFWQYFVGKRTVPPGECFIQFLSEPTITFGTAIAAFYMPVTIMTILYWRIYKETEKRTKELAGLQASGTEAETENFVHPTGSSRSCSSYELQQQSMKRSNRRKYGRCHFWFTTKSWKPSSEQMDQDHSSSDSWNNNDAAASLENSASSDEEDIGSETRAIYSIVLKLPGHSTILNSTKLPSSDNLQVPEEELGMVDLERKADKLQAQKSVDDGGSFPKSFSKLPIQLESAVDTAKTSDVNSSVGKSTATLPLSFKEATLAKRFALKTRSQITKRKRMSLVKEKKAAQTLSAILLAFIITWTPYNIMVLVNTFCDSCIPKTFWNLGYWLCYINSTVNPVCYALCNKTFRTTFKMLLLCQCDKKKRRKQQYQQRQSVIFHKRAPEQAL", "assay": "Antagonist activity at human muscarinic M3 receptor expressed in PathHunter U2OS CHRM3 beta-arrestin cells preincubated for 30 mins followed by agonist addition at 6 times EC80 and measured after 90 to 180 mins by PathHunter assay", "assay_type": "functional, cell-based"}, "[5]": {"target": "Voltage-gated inwardly rectifying potassium channel KCNH2 (Homo sapiens, UniProt Q12809)", "sequence (Q12809 whole entry)": "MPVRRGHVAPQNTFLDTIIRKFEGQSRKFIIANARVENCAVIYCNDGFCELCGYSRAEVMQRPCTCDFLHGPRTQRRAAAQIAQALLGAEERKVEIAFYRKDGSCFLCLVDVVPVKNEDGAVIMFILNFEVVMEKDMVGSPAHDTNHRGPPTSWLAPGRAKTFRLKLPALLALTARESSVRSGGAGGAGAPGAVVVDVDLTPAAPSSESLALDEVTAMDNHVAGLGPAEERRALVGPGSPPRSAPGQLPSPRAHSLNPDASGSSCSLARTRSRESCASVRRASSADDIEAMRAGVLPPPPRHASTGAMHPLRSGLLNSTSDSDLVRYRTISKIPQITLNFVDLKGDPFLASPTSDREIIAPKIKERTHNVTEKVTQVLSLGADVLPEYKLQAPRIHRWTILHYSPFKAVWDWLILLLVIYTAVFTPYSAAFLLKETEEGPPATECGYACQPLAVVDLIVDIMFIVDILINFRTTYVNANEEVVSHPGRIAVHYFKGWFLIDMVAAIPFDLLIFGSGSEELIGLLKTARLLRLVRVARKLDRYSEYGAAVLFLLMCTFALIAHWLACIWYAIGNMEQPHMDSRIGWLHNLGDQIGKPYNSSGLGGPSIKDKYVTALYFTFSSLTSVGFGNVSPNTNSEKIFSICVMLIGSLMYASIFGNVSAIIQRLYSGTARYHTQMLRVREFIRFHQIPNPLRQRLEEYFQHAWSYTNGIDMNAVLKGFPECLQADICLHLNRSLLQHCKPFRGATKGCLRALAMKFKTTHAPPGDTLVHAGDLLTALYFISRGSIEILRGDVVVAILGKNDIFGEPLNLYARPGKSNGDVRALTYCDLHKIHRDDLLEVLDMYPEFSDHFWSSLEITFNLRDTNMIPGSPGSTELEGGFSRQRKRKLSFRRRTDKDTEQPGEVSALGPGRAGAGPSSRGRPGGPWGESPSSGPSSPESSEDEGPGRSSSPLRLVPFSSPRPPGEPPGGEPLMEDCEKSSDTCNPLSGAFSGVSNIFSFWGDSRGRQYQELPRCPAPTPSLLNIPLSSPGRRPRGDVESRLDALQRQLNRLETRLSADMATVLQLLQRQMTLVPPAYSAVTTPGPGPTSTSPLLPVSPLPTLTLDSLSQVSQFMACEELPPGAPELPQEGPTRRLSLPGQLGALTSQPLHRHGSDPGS", "assay": "Inhibition of hERG in HEK293 cells measured after 5 mins by patch-clamp assay"}}, "data": [{"compound": "CC(C)NCC(O)COc1cccc2ccccc12", "note": "(stereo not given) [PROPRANOLOL]", "values": [{"measurement": "Papp B→A at 1 h, 5 µM", "setting": "[1]", "value": 20.5, "unit": "×10⁻⁶ cm/s"}, {"measurement": "efflux ratio at 1 h, 5 µM", "setting": "[2]", "value": 0.59}, {"measurement": "Papp A→B at 1 h, 5 µM", "setting": "[3]", "value": 34.8, "unit": "×10⁻⁶ cm/s"}]}, {"compound": "OC[C@H](O)CN1CCC(=C2c3ccc(Cl)cc3CCc3cccnc32)CC1", "values": [{"measurement": "IC50", "setting": "[4]", "value": "> 10000", "unit": "nM"}, {"measurement": "IC50", "setting": "[5]", "value": 2640, "unit": "nM"}]}]}
